Experimental data from US9364479B2, “Use of a receptor-type kinase modulator for treating polycystic kidney disease” (SYMPHONY EVOLUTION, INC., priority 2010, dated 2016).
Where “and” joins values, the source holds several entries; their conditions need not be identical. Identical values can stand only once.

Assays:
[1] = system: Glutamate, Kainate Site; assay: NovaScreen assay; format: binding
[2] = biological target: T1, Potassium Channel, Ca2+ Act., VS (Homo sapiens, UniProt Q12791); assay: NovaScreen assay; format: binding; settings: read-out: Inhibition, 10 μM XL-647
T1 construct: NovaScreen

[3] = biological target: T2, Oxytocin (Homo sapiens, UniProt P30559); assay: NovaScreen assay; format: binding; settings: read-out: Inhibition, 10 μM XL-647
T2 construct: NovaScreen

[4] = biological target: T3, Neurokinin, NK2 (NKA) (Human Recombinant) (Homo sapiens, UniProt P21452); assay: NovaScreen assay; format: binding; settings: read-out: Inhibition, 10 μM XL-647
T3 construct: NovaScreen

[5] = biological target: T4, EMK (Homo sapiens, UniProt Q7KZI7); assay: Chemiluminescent kinase assay; format: biochemical
T4 construct: His6 (N)
Procedure: (§1) Further screening was performed using the biochemical assay methods of Example 2. Additional description of the components and concentrations are summarized in Table 8, Table 9, and Table 10, below.

[6] = biological target: T5, GSK3β (Homo sapiens, UniProt P49841); assay: Chemiluminescent kinase assay; format: biochemical
T5 construct: His6 (N); purchased Upstate Biotechnology
Procedure: as §1

[7] = biological target: T6, MAP4K3 (Homo sapiens, UniProt Q8IVH8); assay: Chemiluminescent kinase assay; format: biochemical
T6 construct: Kinase domain,; His6 (N)
Procedure: as §1

[8] = system: H1975 human tumor xenograft; assay: H1975 xenograft, tumor growth; format: in vivo; settings: Mus musculus, NCI-H1975; qd × 14
Procedure: Before treatment, H1975, A431, or MDA-MB-231 cells were harvested from exponentially growing cultures, detached by brief trypsinization, washed twice in cold HBSS, resuspended in ice-cold HBSS, and implanted either s.c. (H1975, 3×10^6 cells per mouse) or i.d. (A431, 1×10^6 cells per mouse) into the dorsal hind flank or s.c. into the mammary fat pad (MDA-MB-231, 1×10^6 cells per mouse). Palpable tumors were measured by caliper twice weekly until the mean tumor weight was in the range of ˜80 to 120 mg. Tumor weight was determined by measuring perpendicular diameters with a caliper and multiplying the measurements of diameters in two dimensions: tumor volume (mm^3)/2=length (mm)×width (mm^2)/2. […] The mean tumor weight of each animal in the respective control and treatment groups was determined twice weekly during the dosing periods. […]
The response of tumors to treatment was determined by comparing the mean tumor weight of the treatment group with the appropriate control group. Percentage inhibition of tumor growth was determined with the following formula: Percentage inhibition=100×[1−(Xf−Xo)/(Yf−Yo)], where Xf and Yf are the mean tumor weights of the treatment and control groups, respectively, on day f, and Xo and Yo are the mean tumor weights of treatment and control groups respectively, on day zero (staged tumor weights after grouping)

[9] = biological target: T7, total HER2/ErbB2 (Homo sapiens, UniProt P04626); assay: In vivo receptor level, BT474 xenografts; parameters: species or system mouse
T7 construct: endogenous in cells; host or cells: BT474 tumour xenografts in mice (per the earlier reading)

[10] = system: MDA-MB-231 xenograft tumors; assay: Immunohistochemistry of MDA-MB-231 xenograft tumors (Ki67, CD31); format: in vivo, mouse; settings: 100 mg/kg, relative to vehicle
Procedure: For immunohistochemical analysis of H1975, MDA-MB-231 and other xenografts, tumors were excised after euthanasia and fixed in zinc fixative (BD Biosciences) for 48 h before being processed into paraffin blocks. Serial sections at 5 μm were obtained from the area of largest possible surface for each tumor and stained using standard methods. The following antibodies were used: Ki67 (SP6; Labvision), CD31 (MECA.32; BD Biosciences), pERK^Thr202/Tyr204 (phospho-p44/42 mitogen-activated protein kinase; Cell Signaling Technology), pAKT^Ser473 (Cell Signaling Technology), and pEGFR^Tyr1068 (Cell Signaling Technology). For immunofluorescent staining, sections were then incubated with Alexa 594-conjugated goat anti-rabbit secondary antibody (Invitrogen) and mounted in Fluorescent Mounting Medium (DAKO) containing 4′,6-diamidino-2-phenylindole (Molecular Probes) as a nuclear counterstain. Fluorescent staining was visualized using a Zeiss Axiolmager and digitally captured using a Zeiss high-resolution camera coupled to AxioVision image analysis software. Two to three nonoverlapping representative fields were captured at ×200 or ×400 magnification depending on histologic readout and quantified using the integrated morphometric analysis functions in Metamorph software (Universal Imaging Corp.). Apoptotic cells were detected using terminal deoxynucleotidyl transferase-mediated dUTP nick end labeling in situ cell death detection kit according to the manufacturer's instructions (Roche Diagnostics GmbH).
CD31-positive tumor vessels, Ki67-positive proliferating cells, and pERK staining in each tumor section were identified and quantified using the integrated morphometric analysis functions in the ACIS automatic cellular imaging system (Clarient, Inc.) and reviewed by a blinded observer. Number of CD31-positive vessels were identified across 5 to 10 randomly chosen fields of equal size at ×100 magnification in viable tumor tissue and calculated as number of vessels per square millimeter for each tumor, averaged for each treatment group, and compared with vehicle-treated controls. Percentage Ki67-positive cells were calculated as the ratio between Ki67-positive cells divided by the total number of cells identified across 5 to 10 randomly chosen fields of equal size in viable tumor tissue. The results for each tumor and treatment group were averaged and compared with vehicle-treated controls. The level of pERK staining was determined as described above and calculated as the ratio of antibody staining divided by the total number of cells identified, averaged for each treatment group, and compared with vehicle-treated controls.
Tumor proliferation was measured by staining for Ki67, which […]. The degree of tumor vascularization was measured by staining with the endothelial cell marker CD31 (Table 20).

[11] = format: in vitro ADME; settings: human
[12] = biological target: CYP3A4 (Homo sapiens, UniProt P08684); settings: microsomes
CYP3A4, sequence (P08684 whole entry): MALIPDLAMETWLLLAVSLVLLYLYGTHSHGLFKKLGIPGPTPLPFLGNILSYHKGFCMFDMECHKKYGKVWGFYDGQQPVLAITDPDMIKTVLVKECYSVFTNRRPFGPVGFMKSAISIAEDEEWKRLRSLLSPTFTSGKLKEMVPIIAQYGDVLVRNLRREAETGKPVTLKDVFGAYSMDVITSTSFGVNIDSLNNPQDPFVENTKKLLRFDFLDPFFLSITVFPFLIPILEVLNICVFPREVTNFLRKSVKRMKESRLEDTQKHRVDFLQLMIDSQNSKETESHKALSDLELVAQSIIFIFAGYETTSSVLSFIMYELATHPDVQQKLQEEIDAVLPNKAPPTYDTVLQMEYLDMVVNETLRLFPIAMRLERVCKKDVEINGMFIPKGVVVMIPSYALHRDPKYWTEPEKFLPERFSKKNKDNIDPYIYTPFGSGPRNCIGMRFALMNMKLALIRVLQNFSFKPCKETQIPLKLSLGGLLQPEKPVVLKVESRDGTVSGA

T6 sequence (Q8IVH8 16-273 limits assumed, species assumed): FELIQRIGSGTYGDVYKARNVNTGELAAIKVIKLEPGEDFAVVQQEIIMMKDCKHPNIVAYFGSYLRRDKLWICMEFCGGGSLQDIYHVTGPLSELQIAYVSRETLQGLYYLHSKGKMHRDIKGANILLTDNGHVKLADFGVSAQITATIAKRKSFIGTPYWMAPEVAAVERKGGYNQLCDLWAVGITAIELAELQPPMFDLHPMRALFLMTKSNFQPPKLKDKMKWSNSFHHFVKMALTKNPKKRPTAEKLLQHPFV
T1 sequence (Q12791 whole entry): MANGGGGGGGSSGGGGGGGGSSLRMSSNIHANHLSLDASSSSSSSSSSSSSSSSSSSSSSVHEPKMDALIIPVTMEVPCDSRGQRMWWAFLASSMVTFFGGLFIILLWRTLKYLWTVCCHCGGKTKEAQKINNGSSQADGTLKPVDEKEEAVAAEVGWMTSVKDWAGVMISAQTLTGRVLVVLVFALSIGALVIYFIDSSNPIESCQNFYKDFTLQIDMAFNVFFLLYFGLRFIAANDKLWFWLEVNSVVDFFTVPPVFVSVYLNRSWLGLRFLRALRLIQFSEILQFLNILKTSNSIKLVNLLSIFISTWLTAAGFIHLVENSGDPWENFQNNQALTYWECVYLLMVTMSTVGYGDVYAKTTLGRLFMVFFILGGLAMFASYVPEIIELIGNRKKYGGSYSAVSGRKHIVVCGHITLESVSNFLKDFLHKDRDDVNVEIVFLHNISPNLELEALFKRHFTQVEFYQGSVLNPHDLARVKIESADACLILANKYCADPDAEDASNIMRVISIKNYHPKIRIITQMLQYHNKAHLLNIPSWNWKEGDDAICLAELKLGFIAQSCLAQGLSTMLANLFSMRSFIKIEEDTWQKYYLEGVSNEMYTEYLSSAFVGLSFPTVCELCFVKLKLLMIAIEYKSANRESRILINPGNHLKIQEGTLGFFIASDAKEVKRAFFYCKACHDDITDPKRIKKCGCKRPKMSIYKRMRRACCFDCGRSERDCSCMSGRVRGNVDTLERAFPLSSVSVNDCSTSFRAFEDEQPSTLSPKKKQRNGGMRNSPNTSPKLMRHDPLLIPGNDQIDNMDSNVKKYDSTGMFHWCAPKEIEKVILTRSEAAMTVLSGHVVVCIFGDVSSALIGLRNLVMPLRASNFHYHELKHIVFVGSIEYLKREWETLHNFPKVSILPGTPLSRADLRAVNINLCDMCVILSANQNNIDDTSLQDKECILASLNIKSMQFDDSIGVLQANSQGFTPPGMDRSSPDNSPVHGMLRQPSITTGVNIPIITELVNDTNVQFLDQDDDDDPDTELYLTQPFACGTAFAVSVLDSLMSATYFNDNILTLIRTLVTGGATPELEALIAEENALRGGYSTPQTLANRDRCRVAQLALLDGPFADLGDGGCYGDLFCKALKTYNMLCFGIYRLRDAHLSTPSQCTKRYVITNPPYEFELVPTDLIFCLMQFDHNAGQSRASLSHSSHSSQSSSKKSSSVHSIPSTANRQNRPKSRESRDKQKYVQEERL
T4 sequence (Q7KZI7 whole entry): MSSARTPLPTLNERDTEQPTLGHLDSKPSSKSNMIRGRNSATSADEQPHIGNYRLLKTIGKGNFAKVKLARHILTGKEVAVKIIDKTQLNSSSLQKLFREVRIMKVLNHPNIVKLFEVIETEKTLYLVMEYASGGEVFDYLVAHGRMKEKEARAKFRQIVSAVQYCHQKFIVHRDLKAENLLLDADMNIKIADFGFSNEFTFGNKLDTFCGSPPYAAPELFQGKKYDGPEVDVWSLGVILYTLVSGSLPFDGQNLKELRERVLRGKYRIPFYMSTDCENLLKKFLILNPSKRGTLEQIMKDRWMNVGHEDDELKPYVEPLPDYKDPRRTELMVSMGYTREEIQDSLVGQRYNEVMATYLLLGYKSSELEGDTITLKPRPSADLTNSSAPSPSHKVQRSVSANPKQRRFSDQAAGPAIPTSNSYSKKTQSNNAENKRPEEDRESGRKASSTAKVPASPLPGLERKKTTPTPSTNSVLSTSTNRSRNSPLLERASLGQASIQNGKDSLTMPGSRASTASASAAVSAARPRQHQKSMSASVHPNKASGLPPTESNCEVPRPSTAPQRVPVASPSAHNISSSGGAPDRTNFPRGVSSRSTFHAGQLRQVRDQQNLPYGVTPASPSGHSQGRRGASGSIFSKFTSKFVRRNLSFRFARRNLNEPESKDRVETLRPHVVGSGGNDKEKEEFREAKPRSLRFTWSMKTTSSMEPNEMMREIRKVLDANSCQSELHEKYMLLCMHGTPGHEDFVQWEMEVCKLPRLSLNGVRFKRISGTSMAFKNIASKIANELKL
T3 sequence (P21452 whole entry): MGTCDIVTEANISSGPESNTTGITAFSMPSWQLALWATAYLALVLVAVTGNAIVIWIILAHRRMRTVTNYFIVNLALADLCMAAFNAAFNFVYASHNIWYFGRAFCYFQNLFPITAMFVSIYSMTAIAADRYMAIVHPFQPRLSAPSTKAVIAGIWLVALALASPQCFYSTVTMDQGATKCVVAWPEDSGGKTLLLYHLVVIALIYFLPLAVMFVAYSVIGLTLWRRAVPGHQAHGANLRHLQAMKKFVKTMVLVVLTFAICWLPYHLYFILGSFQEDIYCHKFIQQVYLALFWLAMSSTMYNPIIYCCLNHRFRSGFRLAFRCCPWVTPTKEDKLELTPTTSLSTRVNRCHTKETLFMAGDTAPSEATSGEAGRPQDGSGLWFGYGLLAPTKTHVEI
T2 sequence (P30559 whole entry): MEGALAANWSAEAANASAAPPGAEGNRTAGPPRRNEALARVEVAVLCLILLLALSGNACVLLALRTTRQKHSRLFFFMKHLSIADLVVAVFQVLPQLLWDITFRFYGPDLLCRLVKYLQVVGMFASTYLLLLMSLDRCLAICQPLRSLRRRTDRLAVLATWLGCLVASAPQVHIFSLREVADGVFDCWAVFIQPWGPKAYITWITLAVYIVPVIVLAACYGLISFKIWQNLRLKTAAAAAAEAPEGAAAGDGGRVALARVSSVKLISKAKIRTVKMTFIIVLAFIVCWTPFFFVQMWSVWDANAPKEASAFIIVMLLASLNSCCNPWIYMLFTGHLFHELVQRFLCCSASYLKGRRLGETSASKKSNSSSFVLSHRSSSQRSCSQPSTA
T7 sequence (P04626 23-1255): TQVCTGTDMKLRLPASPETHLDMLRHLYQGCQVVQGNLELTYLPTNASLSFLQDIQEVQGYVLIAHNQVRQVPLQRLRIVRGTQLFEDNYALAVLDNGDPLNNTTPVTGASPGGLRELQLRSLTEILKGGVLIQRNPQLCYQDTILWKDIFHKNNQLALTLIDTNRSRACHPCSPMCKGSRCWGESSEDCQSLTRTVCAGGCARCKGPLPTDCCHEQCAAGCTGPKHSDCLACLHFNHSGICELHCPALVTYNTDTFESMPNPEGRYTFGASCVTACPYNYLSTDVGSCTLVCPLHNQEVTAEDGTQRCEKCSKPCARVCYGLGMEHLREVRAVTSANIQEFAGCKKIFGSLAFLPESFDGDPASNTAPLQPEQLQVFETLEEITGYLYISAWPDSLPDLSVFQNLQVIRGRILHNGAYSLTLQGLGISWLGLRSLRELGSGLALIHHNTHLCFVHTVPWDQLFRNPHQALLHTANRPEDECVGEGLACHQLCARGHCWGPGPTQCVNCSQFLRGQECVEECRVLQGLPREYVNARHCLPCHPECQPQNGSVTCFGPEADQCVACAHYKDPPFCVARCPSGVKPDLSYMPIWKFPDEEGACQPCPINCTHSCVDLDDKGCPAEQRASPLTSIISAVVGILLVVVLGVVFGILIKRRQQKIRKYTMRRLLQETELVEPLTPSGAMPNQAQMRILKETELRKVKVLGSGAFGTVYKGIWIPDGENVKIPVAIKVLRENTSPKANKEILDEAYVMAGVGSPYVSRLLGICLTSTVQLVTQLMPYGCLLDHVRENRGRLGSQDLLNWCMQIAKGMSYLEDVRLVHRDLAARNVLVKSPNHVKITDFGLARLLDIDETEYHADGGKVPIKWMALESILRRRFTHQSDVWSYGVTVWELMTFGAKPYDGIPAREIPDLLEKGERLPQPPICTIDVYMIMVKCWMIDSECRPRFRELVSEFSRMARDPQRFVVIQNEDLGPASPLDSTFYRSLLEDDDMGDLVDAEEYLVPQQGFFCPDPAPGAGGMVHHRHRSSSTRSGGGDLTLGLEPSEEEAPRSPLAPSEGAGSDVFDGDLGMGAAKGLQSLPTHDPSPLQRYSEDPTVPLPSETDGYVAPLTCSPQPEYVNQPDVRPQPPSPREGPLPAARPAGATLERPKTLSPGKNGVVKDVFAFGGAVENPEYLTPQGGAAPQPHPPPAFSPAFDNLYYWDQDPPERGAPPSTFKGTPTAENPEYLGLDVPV

COc1cc2c(Nc3ccc(Cl)c(Cl)c3F)ncnc2cc1OC[C@@H]1C[C@@H]2CN(C)C[C@@H]2C1 [XL-647, N-(3,4-dichloro-2-fluorophenyl)-7-({[(3aR,5r,6aS)-2-methyloctahydrocyclopenta[c]pyrrol-5-yl]methyl}oxy)-6-(methyloxy)quinazolin-4-amine]
Inhibition, 10 μM XL-647 [1]: 0.89%
inhibition at 10 µM [2]: 22.7%
inhibition at 10 µM [3]: -2.59%
inhibition at 10 µM [4]: 34.2%
IC50 [5]: > 10000 nM
IC50 [6]: > 1000 nM
IC50 [7]: > 1000 nM
ED50 [8]: 17 mg/kg
Single Dose Duration of Action (100 mg/kg, >50% inhibition) [9]: >96 h
CD31 (% Reduction) ([10]; 3 days): 76% and 76.5%
Ki67 (% Reduction) ([10]; 3 days): 9.62%
CD31 (% Reduction) ([10]; 5 days): 90.18%
Ki67 (% Reduction) ([10]; 5 days): 33.8%
CD31 (% Reduction) ([10]; 7 days): 95.7%
Ki67 (% Reduction) ([10]; 7 days): 50% and 48.7%
protein bound [11]: 93-97.5%
CYP3A4 inhibition, in words [12]: but not CYP3A4
